Data taken from patent US9409880B2, “Modulators of TLR3/dsRNA complex and uses thereof” (The Regents of the University of Colorado, a body corporate, priority 2011, dated 2016).
Entries after “also recorded” stand apart in the source; their conditions may differ.

Legend:
RANTES = assay: In vivo poly IC-induced RANTES production; set-up: species or system mice
Cyp3A4 = biological target: T1, Cyp3A4 (Homo sapiens, UniProt P08684); assay: Cytochrome P450 toxicity assay; format: in vitro ADME; details: 25 μM and 50 μM; compared to known inhibitor ketoconazole
T1 construct: tissue Apredica (testing lab); host or cells: microsomes (subcellular fractions)
Description: (§1) Test agent was incubated (two wells per condition) with microsomes at 37° C. Control incubations containing vehicle or reference inhibitors were run along side the test agents. The final assay contained test agent, probe substrates at the indicated concentration, 2 mM NADPH, 3 mM MgCl2 in 50 mM potassium phosphate buffer, pH 7.4. The final microsomal concentration was 0.5 mg/mL. The maximum solvent concentration in the final assay was ≦0.5% to minimize the inhibition of Cyps by solvent. NADPH was added last to start the assay. At the end of ten minutes incubation, the assay was stopped by the addition of acetonitrile containing internal standard, the samples were centrifuged, and the amount of probe metabolite in the supernatant was determined by LC/MS/MS. (Testing was done by Apredica, Watertown, Mass. using subcellular fractions)

Cyp2D6 = biological target: T2, Cyp2D6 (Homo sapiens, UniProt P10635); assay: Cytochrome P450 toxicity assay; format: in vitro ADME; details: 25 μM and 50 μM; compared to known inhibitor quinidine
T2 construct: tissue Apredica (testing lab); host or cells: microsomes (subcellular fractions)
Description: as §1

Cyp1A2 = biological target: T3, Cyp1A2 (Homo sapiens, UniProt P05177); assay: Cytochrome P450 toxicity assay; format: in vitro ADME; details: 25 μM and 50 μM; compared to known inhibitor aNF
T3 construct: tissue Apredica (testing lab); host or cells: microsomes (subcellular fractions)
T3 sequence (P05177 1-516): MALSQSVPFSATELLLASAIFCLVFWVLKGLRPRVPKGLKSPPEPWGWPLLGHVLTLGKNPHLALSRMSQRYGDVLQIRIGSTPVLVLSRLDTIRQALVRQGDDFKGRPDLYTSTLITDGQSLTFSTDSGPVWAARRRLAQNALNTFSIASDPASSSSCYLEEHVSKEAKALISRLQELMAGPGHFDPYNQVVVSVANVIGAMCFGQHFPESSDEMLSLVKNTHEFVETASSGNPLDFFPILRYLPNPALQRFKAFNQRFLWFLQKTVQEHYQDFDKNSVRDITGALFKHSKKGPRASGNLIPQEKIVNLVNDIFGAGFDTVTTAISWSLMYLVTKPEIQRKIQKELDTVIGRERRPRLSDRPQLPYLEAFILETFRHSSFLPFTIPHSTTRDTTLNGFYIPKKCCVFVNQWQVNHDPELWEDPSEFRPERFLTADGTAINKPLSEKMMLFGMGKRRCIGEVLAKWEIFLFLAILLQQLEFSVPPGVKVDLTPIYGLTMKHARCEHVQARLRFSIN
Description: as §1

T2 sequence (P10635 whole entry): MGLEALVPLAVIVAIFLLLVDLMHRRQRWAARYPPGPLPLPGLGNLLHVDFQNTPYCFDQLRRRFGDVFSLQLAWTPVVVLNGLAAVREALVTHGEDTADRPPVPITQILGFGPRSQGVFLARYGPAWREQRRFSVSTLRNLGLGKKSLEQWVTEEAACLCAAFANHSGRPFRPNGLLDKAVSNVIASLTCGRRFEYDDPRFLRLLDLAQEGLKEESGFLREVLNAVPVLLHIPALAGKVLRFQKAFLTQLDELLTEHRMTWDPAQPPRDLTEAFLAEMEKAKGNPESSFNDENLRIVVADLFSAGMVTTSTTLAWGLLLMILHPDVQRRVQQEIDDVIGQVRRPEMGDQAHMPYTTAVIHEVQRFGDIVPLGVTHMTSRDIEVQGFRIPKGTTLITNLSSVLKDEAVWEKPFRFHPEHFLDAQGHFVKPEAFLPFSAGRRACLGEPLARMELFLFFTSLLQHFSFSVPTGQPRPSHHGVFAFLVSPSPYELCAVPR
T1 sequence (P08684 whole entry): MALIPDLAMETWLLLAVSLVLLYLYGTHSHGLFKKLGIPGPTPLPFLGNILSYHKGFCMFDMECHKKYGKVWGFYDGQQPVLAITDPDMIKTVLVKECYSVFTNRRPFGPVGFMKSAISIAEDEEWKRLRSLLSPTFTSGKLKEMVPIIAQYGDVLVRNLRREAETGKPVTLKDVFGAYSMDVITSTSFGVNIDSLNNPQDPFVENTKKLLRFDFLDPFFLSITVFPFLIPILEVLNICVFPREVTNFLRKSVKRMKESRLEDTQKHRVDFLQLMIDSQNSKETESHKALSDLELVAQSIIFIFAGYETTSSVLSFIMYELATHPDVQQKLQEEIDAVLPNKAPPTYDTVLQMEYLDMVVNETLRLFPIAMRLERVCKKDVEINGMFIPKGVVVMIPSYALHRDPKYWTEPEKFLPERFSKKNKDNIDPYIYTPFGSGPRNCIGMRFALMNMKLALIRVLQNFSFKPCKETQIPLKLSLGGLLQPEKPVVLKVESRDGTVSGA

O=C(N[C@H](Cc1ccccc1)C(=O)O)c1sc2cc(F)ccc2c1Cl [Compound 4a, (R)-2-(3-chloro-6-fluorobenzo[b]thiophene-2-carboxamido)-3-phenylpropanoic acid]
RANTES production with increased pre-treatment doses (RANTES; pretreatment before poly IC i.v.): decrease of RANTES in a dose-dependent manner; also recorded: decreasing RANTES production
RANTES production with increasing poly IC doses (RANTES; pretreatment with 27 μg): significant decrease in RANTES production; also recorded: decreased RANTES production
toxicity to Cyp3A4 (Cyp3A4): low toxicity
toxicity to Cyp2D6 (Cyp2D6): low toxicity
toxicity to Cyp1A2 (Cyp1A2): low toxicity
